The values that follow come from publication PMC8070648, “Simultaneous Visualization of ^161Tb- and ^177Lu-Labeled Somatostatin Analogues Using Dual-Isotope SPECT Imaging” (Pharmaceutics, 2021).

Data set [1] is described as follows: n-octanol/PBS distribution coefficient (logD), shake-flask method. The class given is physicochemical. The following applies: PBS pH 7.4; average ± SD. On the procedure:
DOTA-[Tyr^3]-octreotide (DOTATOC) was kindly provided by ITM Medical Isotopes GmbH, Munich, Germany.
Figure S3. Graphs of bars representing the percentage of intact radiopeptide investigated at 1 h, 4 h, and 24 h after preparation and dilution in saline (10 MBq/250 μL). (A) Percentage of intact radiopeptide in solution in the absence of ascorbic acid; (B) Percentage of intact radiopeptide in solution in the presence of ascorbic acid.
S4. Determination of n‐Octanol/PBS Distribution Coefficients (LogD Values) Purpose: The n‐octanol/PBS distribution coefficients (logD values) were assessed for each radiopeptide in order to investigate their hydrophilicity and enable comparison of […]
DOTA‐LM3) were determined by a shake‐flask method, as previously reported. […] The logD values were calculated as the logarithm of the ratio of counts per minute (cpm) measured in the n‐octanol phase relative to the cpm measured in the PBS pH 7.4 phase. The experiments were performed three times with five replicates for each radiopeptide and the logD value was expressed as the average ± standard deviation (SD) of the values obtained in each experiment. […]
Methods: A potential blockade of the uptake of [161Tb]Tb‐DOTA‐LM3 into AR42J cells was determined in the presence of >1000‐fold excess unlabeled DOTANOC or DOTA‐LM3 relative to the radiopeptide using the same protocol as reported in the main article. […]

Another data set concerns AR42J tumor-bearing mice. The data set can be described thus: Biodistribution in AR42J tumor-bearing nude mice. The class given is in vivo. The following applies: i.v. 5 MBq, 1 nmol/mouse. From the text:
Five-week-old female CD-1 nude mice were purchased from Charles River Laboratories (Sulzfeld, Germany).

Regarding `C[C@@H](O)[C@@H]1NC(=O)[C@H](CCCCN)NC(=O)[C@@H](Cc2c[nH]c3ccccc23)NC(=O)[C@H](Cc2ccc(O)cc2)NC(=O)[C@@H](NC(=O)[C@@H](Cc2ccccc2)NC(=O)CN2CCN(CC(=O)O)CCN(CC(=O)O)CCN(CC(=O)O)CC2)CSSC[C@@H](C(=O)N[C@H](CO)[C@@H](C)O)NC1=O` [[^161Tb]Tb-DOTATOC] [metal not drawn], the “logD value (n-octanol/PBS distribution coefficient)” value in data set [1] is −3.3 ± 0.2.
On to `C[C@@H](O)[C@@H]1NC(=O)[C@H](CCCCN)NC(=O)[C@@H](Cc2c[nH]c3ccccc23)NC(=O)[C@H](Cc2ccc(O)cc2)NC(=O)[C@@H](NC(=O)[C@@H](Cc2ccccc2)NC(=O)CN2CCN(CC(=O)O)CCN(CC(=O)O)CCN(CC(=O)O)CC2)CSSC[C@@H](C(=O)N[C@H](CO)[C@@H](C)O)NC1=O` [[^177Lu]Lu-DOTATOC] [metal not drawn, reference compound], for which, in the data set on AR42J tumor-bearing mice (2 h p.i.), the “AR42J Tumor” value is 8.9 ± 1.5 % IA/g, the Adrenals is given as 0.28 ± 0.08 % IA/g, the Blood is reported as at most 0.10 % IA/g and the Femur is given as at most 0.10 % IA/g. In the data set with AR42J tumor-bearing mice (2 h p.i.), this compound gave a Heart of at most 0.10 % IA/g, an Intestines of 0.20 ± 0.05 % IA/g, a Liver of 0.26 ± 0.07 % IA/g and a Lung of 0.37 ± 0.06 % IA/g. In the data set with AR42J tumor-bearing mice (2 h p.i.), this compound gave a Muscle of at most 0.10 % IA/g, a Pancreas of 0.80 ± 0.13 % IA/g and a Stomach of 0.65 ± 0.11 % IA/g. Further, in the data set on AR42J tumor-bearing mice (24 h p.i.), the Blood is listed as at most 0.10 % IA/g, the Femur is at most 0.10 % IA/g, the Heart is given as at most 0.10 % IA/g and the Intestines is at most 0.10 % IA/g. In the data set with AR42J tumor-bearing mice (24 h p.i.), this compound yielded a Kidneys of 5.9 ± 2.1 % IA/g, a Liver of 0.13 ± 0.02 % IA/g, a Muscle of at most 0.10 % IA/g and a Pancreas of 0.21 ± 0.04 % IA/g. This compound also showed a Spleen with AR42J tumor-bearing mice (24 h p.i.) of at most 0.10 % IA/g. Moreover, the “logD value (n-octanol/PBS distribution coefficient)” value in data set [1] is recorded as −3.1 ± 0.2.
